Reference: patent US11292807B2 (OCEANS LTD., priority 2015, dated 2022)
Read-outs that look alike come from different tables or passages of the source.

Key:
MDA-MB [1] = experiment: cells; conditions: Homo sapiens, read-out: Average cell viability, MDA-MB
PC3 = experiment: CIMA assay, cell viability, PC3; conditions: for Fold change in viability AVG / In vitro activity against cancer cell lines, PC3 AVG: PC3
[2] = CIMA assay, cell viability, CCD1079SK; conditions: human, Average cell viability, CCD
[3] = test system: CCD1079SK (fibroblast, noncancerous but proliferating); experiment: CIMA assay, cell viability, CCD1079SK; conditions: CCD
A549 (lung carcinoma) = experiment: CIMA assay (colorimetric indicator of metabolic activity), cell viability, A549; conditions: for Fold change in viability AVG / In vitro activity against cancer cell lines, A549 AVG: A549
[4] = test system: U373 (glioblastoma-astrocytoma); experiment: CIMA assay, cell viability, U373; conditions: for Fold change in viability AVG / In vitro activity against cancer cell lines, U373 AVG: U373
Method: (§1) Stock solutions of the extracts were prepared in dimethylsulfoxide (DMSO) at 10 mg/mL and stored in 200 μl aliquots at −20° C. until analysis. This preparation ensured that the DMSO delivered to cells in culture never exceeded 1%.
(§2) Prepared extracts were assessed following chronic exposure conditions in which cells were seeded at 2×10^3 cells/well (96 well-plate) and incubated with test compounds for 72 h. Each compound was evaluated over a range of concentrations (0, 10, 25, 50 or 100 μg/ml). Cell proliferation was initially assessed using a standard colorimetric indicator of metabolic activity (CIMA) assay. In this assay, tetrazole reduction was evaluated as a measure of metabolic function that evaluates mitochondrial activity to determine the extent of cell proliferation within a culture. This assay is based on the reduction of yellow tetrazolium salt to purple formazan by mitochondrial reductases enzyme in viable cells, resulting in a color changed that confers a change in absorbance.

MDA-MB [5] = conditions: MDA-MB
[6] = test system: THP-1 (acute monocytic leukemia); experiment: CIMA assay, cell viability, THP-1; conditions: for Fold change in viability AVG / In vitro activity against cancer cell lines, THP-1 AVG: THP-1
Method: as §1, §2

[7] = test system: SKOV3 (ovarian adenocarcinoma); experiment: CIMA assay, cell viability, SKOV3; conditions: for Fold change in viability AVG / In vitro activity against cancer cell lines, SKOV AVG: SKOV
Method: as §1, §2

CCCCCCCCCCCCCCCC(=O)OCC(COC1OC(CO)C(O)C(O)C1O)OC(=O)CCCCCCCCCCCCC (centres unmarked) [Compound 16, MGDG C16:0/C14:0]
viability at 1 µg/mL (MDA-MB [1]; 1 ug/mL): 99% | viability at 10 µg/mL (MDA-MB [1]; 10 ug/mL): 101% | viability at 50 µg/mL (MDA-MB [1]; 50 ug/mL): 70% | viability at 100 µg/mL (MDA-MB [1]; 100 ug/mL): 20% | viability at 1 µg/mL (PC3; Homo sapiens, PC-3, read-out: Average cell viability, PC3, 1 ug/mL): 100% | viability at 10 µg/mL (PC3; Homo sapiens, PC-3, read-out: Average cell viability, PC3, 10 ug/mL): 96% | viability at 50 µg/mL (PC3; Homo sapiens, PC-3, read-out: Average cell viability, PC3, 50 ug/mL): 72% | viability at 100 µg/mL (PC3; Homo sapiens, PC-3, read-out: Average cell viability, PC3, 100 ug/mL): 9% | Fold change in viability AVG (PC3; 1 ug/mL): 1.04 | In vitro activity against cancer cell lines, PC3 AVG (PC3; 1 ug/mL): 1.04 | Fold change in viability AVG (PC3; 10 ug/mL): 0.99 | In vitro activity against cancer cell lines, PC3 AVG (PC3; 10 ug/mL): 0.99 | Fold change in viability AVG (PC3; 50 ug/mL): 0.75 | In vitro activity against cancer cell lines, PC3 AVG (PC3; 50 ug/mL): 0.75 | Fold change in viability AVG (PC3; 100 ug/mL): 0.10 | In vitro activity against cancer cell lines, PC3 AVG (PC3; 100 ug/mL): 0.10 | viability at 72 h, 1 ug/mL ([2]; CCD1079SK fibroblast cells (noncancerous, proliferating), 1 ug/mL): 106% | viability at 72 h, 10 ug/mL ([2]; CCD1079SK fibroblast cells (noncancerous, proliferating), 10 ug/mL): 98% | viability at 72 h, 50 ug/mL ([2]; CCD1079SK fibroblasts (noncancerous, proliferating), 50 ug/mL): 44% | viability at 72 h, 100 ug/mL ([2]; CCD1079SK fibroblasts (noncancerous, proliferating), 100 ug/mL): 19% | Fold change in viability AVG ([3]; 1 ug/mL): 1.16 | Fold change in viability AVG ([3]; 10 ug/mL): 1.08 | Fold change in viability AVG ([3]; 50 ug/mL): 0.48 | Fold change in viability AVG ([3]; 100 ug/mL): 0.21 | Fold change in viability AVG (A549 (lung carcinoma); 1 ug/mL): 1.13 | In vitro activity against cancer cell lines, A549 AVG (A549 (lung carcinoma); 1 ug/mL): 1.13 | Fold change in viability AVG (A549 (lung carcinoma); 10 ug/mL): 1.16 | In vitro activity against cancer cell lines, A549 AVG (A549 (lung carcinoma); 10 ug/mL): 1.16 | Fold change in viability AVG (A549 (lung carcinoma); 50 ug/mL): 0.99 | In vitro activity against cancer cell lines, A549 AVG (A549 (lung carcinoma); 50 ug/mL): 0.99 | Fold change in viability AVG (A549 (lung carcinoma); 100 ug/mL): 0.60 | In vitro activity against cancer cell lines, A549 AVG (A549 (lung carcinoma); 100 ug/mL): 0.60 | viability at 1 µg/mL (A549 (lung carcinoma); Homo sapiens, A549, read-out: Average cell viability, A549, 1 ug/mL): 97% | viability at 10 µg/mL (A549 (lung carcinoma); Homo sapiens, A549, read-out: Average cell viability, A549, 10 ug/mL): 99% | viability at 50 µg/mL (A549 (lung carcinoma); Homo sapiens, A549, read-out: Average cell viability, A549, 50 ug/mL): 85% | viability at 100 µg/mL (A549 (lung carcinoma); Homo sapiens, A549, read-out: Average cell viability, A549, 100 ug/mL): 52% | viability at 1 µg/mL ([4]; Homo sapiens, U373 MG, read-out: Average cell viability, U373, 1 ug/mL): 108% | viability at 10 µg/mL ([4]; Homo sapiens, U373 MG, read-out: Average cell viability, U373, 10 ug/mL): 95% | viability at 50 µg/mL ([4]; Homo sapiens, U373 MG, read-out: Average cell viability, U373, 50 ug/mL): 48% | viability at 100 µg/mL ([4]; Homo sapiens, U373 MG, read-out: Average cell viability, U373, 100 ug/mL): 9% | Fold change in viability AVG ([4]; 1 ug/mL): 1.09 | In vitro activity against cancer cell lines, U373 AVG ([4]; 1 ug/mL): 1.09 | Fold change in viability AVG ([4]; 10 ug/mL): 0.97 | In vitro activity against cancer cell lines, U373 AVG ([4]; 10 ug/mL): 0.97 | Fold change in viability AVG ([4]; 50 ug/mL): 0.49 | In vitro activity against cancer cell lines, U373 AVG ([4]; 50 ug/mL): 0.49 | Fold change in viability AVG ([4]; 100 ug/mL): 0.09 | In vitro activity against cancer cell lines, U373 AVG ([4]; 100 ug/mL): 0.09 | Fold change in viability AVG (MDA-MB [5]; 1 ug/mL): 1.08 | In vitro activity against cancer cell lines, MDA-MB AVG (MDA-MB [5]; 1 ug/mL): 1.08 | Fold change in viability AVG (MDA-MB [5]; 10 ug/mL): 1.09 | In vitro activity against cancer cell lines, MDA-MB AVG (MDA-MB [5]; 10 ug/mL): 1.09 | Fold change in viability AVG (MDA-MB [5]; 50 ug/mL): 0.76 | In vitro activity against cancer cell lines, MDA-MB AVG (MDA-MB [5]; 50 ug/mL): 0.76 | Fold change in viability AVG (MDA-MB [5]; 100 ug/mL): 0.21 | In vitro activity against cancer cell lines, MDA-MB AVG (MDA-MB [5]; 100 ug/mL): 0.21 | viability at 1 µg/mL ([6]; Homo sapiens, THP-1, read-out: Average cell viability, THP-1, 1 ug/mL): 101% | viability at 10 µg/mL ([6]; Homo sapiens, THP-1, read-out: Average cell viability, THP-1, 10 ug/mL): 101% | viability at 50 µg/mL ([6]; Homo sapiens, THP-1, read-out: Average cell viability, THP-1, 50 ug/mL): 86% | viability at 100 µg/mL ([6]; Homo sapiens, THP-1, read-out: Average cell viability, THP-1, 100 ug/mL): 46% | Fold change in viability AVG ([6]; 1 ug/mL): 1.14 | In vitro activity against cancer cell lines, THP-1 AVG ([6]; 1 ug/mL): 1.14 | Fold change in viability AVG ([6]; 10 ug/mL): 1.15 | In vitro activity against cancer cell lines, THP-1 AVG ([6]; 10 ug/mL): 1.15 | Fold change in viability AVG ([6]; 50 ug/mL): 0.75 | In vitro activity against cancer cell lines, THP-1 AVG ([6]; 50 ug/mL): 0.75 | Fold change in viability AVG ([6]; 100 ug/mL): 0.52 | In vitro activity against cancer cell lines, THP-1 AVG ([6]; 100 ug/mL): 0.52 | viability at 1 µg/mL ([7]; Homo sapiens, SK-OV-3, read-out: Average cell viability, SKOV, 1 ug/mL): 102% | viability at 10 µg/mL ([7]; Homo sapiens, SK-OV-3, read-out: Average cell viability, SKOV, 10 ug/mL): 95% | viability at 50 µg/mL ([7]; Homo sapiens, SK-OV-3, read-out: Average cell viability, SKOV, 50 ug/mL): 83% | viability at 100 µg/mL ([7]; Homo sapiens, SK-OV-3, read-out: Average cell viability, SKOV, 100 ug/mL): 68% | Fold change in viability AVG ([7]; 1 ug/mL): 1.09 | In vitro activity against cancer cell lines, SKOV AVG ([7]; 1 ug/mL): 1.09 | Fold change in viability AVG ([7]; 10 ug/mL): 1.02 | In vitro activity against cancer cell lines, SKOV AVG ([7]; 10 ug/mL): 1.02 | Fold change in viability AVG ([7]; 50 ug/mL): 0.90 | In vitro activity against cancer cell lines, SKOV AVG ([7]; 50 ug/mL): 0.90 | Fold change in viability AVG ([7]; 100 ug/mL): 0.74 | In vitro activity against cancer cell lines, SKOV AVG ([7]; 100 ug/mL): 0.74
